Measurements from patent publication US7642261B2, “Use of 1-[4-(5-cyanoindol-3-yl)butyl]-4-(2-carbamoyl-benzofuran-5-yl)-piperazine and its physiologically acceptable salts” (Merck Patent GmbH, priority 2002, dated 2010).

Tested on: mice
Test: Marble Burying Test (model for OCSD including OCD)
Type: in vivo
Conditions: dose equieffective to 3 mg/kg of the hydrochloride (92% inhibition)
Method: A typical model for OCSD including OCD is the Marble Burying Test according to Y. Ichimaru, T. Egawa, A. Sawa, Jpn. J. Pharmacol. 1995, 68: 65-70.
The apparatus consists of an open cubic box with 25 clean glass marbles evenly spaced on sawdust. Individual mice are placed in the test box, and the number of glass marbles left uncovered after 20 minutes are counted. 1-[4-(5-cyanoindol-3-yl)butyl]-4-(2-carbamoyl-benzofuran-5-yl)-piperazine or one of its physiologically acceptable salts, in particular 1-[4-(5-cyanoindol-3-yl)butyl]-4-(2-carbamoyl-benzofuran-5-yl)-piperazine hydrochloride, following subcutaneous application inhibits mable burying in mice dose-dependently. For example, a dose of 3 mg/kg of 1-[4-(5-cyanoindol-3-yl)butyl]-4-(2-carbamoyl-benzofuran-5-yl)-piperazine hydrochloride nearly completely (92%) inhibits marble burying; equieffective doses of conventional serotonin reuptake inhibitors are e.g. 20 mg/kg for fluvoxamine or 17 mg/kg for fluoxetine and an equieffective dose of the 5-HT1A agonist ipsapirone is 10 mg/kg.

Compound	equieffective dose for inhibition of marble burying [mg/kg]
CNCCC(Oc1ccc(C(F)(F)F)cc1)c1ccccc1 (stereo not drawn) [fluoxetine]	17
O=C1c2ccccc2S(=O)(=O)N1CCCCN1CCN(c2ncccn2)CC1 [ipsapirone]	10
COCCCC/C(=N\OCCN)c1ccc(C(F)(F)F)cc1 [fluvoxamine]	20
